PubChem BioAssay AID2060908 (Molecular Pharmacology Branch, DTP, NCI, 2025)

Test system: 186277-243-T-J2-PDC complex spheroids, viability
Test: Anticancer human tumor 186277-243-T-J2-PDC patient-derived colon adenocarcinoma cell line growth inhibition [RAS]
Conditions: for IC50: curve of first compound; for viability, T/C: stronger effect = lower value
Summary of the method: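 Multi-cell-type spheroids: tumor cells plus HUVEC endothelial cells and mesenchymal stem cells. RAS-pathway inhibitors were combined with targeted agents, each dosed in half-log steps down from clinical Cmax, or from 10 microM when Cmax was unknown.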

[1] = second compound 0.000949 µM, first compound 0.00316 µM
[2] = second compound 0.000949 µM, first compound 0.01 µM
[3] = second compound 0.000949 µM, first compound 0.0316 µM
[4] = second compound 0.000949 µM, first compound 0.1 µM
[5] = second compound 0.003 µM, first compound 0.00316 µM
[6] = second compound 0.003 µM, first compound 0.01 µM
[7] = second compound 0.003 µM, first compound 0.0316 µM
[8] = second compound 0.003 µM, first compound 0.1 µM
[9] = second compound 0.00949 µM, first compound 0.00316 µM
[10] = second compound 0.00949 µM, first compound 0.01 µM
[11] = second compound 0.00949 µM, first compound 0.0316 µM
[12] = second compound 0.00949 µM, first compound 0.1 µM
[13] = second compound 0.03 µM, first compound 0.00316 µM
[14] = second compound 0.03 µM, first compound 0.01 µM
[15] = second compound 0.03 µM, first compound 0.0316 µM
[16] = second compound 0.03 µM, first compound 0.1 µM
[17] = second compound 0.0949 µM, first compound 0.00316 µM
[18] = second compound 0.0949 µM, first compound 0.01 µM
[19] = second compound 0.0949 µM, first compound 0.0316 µM
[20] = second compound 0.0949 µM, first compound 0.1 µM
[21] = second compound 0.3 µM, first compound 0.00316 µM
[22] = second compound 0.3 µM, first compound 0.01 µM
[23] = second compound 0.3 µM, first compound 0.0316 µM
[24] = second compound 0.3 µM, first compound 0.1 µM
[25] = second compound 0.000949 µM, first compound 0.316 µM
[26] = second compound 0.000949 µM, first compound 1 µM
[27] = second compound 0.003 µM, first compound 0.316 µM
[28] = second compound 0.003 µM, first compound 1 µM
[29] = second compound 0.00949 µM, first compound 0.316 µM
[30] = second compound 0.00949 µM, first compound 1 µM
[31] = second compound 0.03 µM, first compound 0.316 µM
[32] = second compound 0.03 µM, first compound 1 µM
[33] = second compound 0.0949 µM, first compound 0.316 µM
[34] = second compound 0.0949 µM, first compound 1 µM
[35] = second compound 0.3 µM, first compound 0.316 µM
[36] = second compound 0.3 µM, first compound 1 µM
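Further: spheroids exposed to compounds for 7 days before viability read.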

For CC(C)n1nc(-c2ccc3oc(N)nc3c2)c2c(N)ncnc21 + CCn1c(-c2cccnc2C(C)OC)c2c3cc(ccc31)N1CCOC(CC(NC(=O)C(C(C)C)N(C)C(=O)C3(F)CCN(C(=O)C#CC(C)(C)N(C)C)CC3)C(=O)N3CCCC(N3)C(=O)OCC(C)(C)C2)C1, the IC50 (second compound 0.000949 µM) was 60.3 nM, the IC50 (second compound 0.003 µM) was 76 nM and the IC50 (second compound 0.00949 µM) was 59 nM. It also gave an IC50 (second compound 0.03 µM) of 56.9 nM, an IC50 (second compound 0.0949 µM) of 41.2 nM and an IC50 (second compound 0.3 µM) of 24.9 nM. For the same molecule, the viability, T/C (second compound 0.000949 µM, first compound 0.000316 µM) was 115%, the viability, T/C (second compound 0.000949 µM, first compound 0.001 µM) was 98.1% and the viability, T/C [1] was 98.5%. The viability, T/C [2] was 100%, the viability, T/C [3] was 70.6% and the viability, T/C [4] was 33.7%. For the same molecule, the viability, T/C (second compound 0.003 µM, first compound 0.000316 µM) was 88%, the viability, T/C (second compound 0.003 µM, first compound 0.001 µM) was 99% and the viability, T/C [5] was 97.1%. It also gave a viability, T/C [6] of 92.2%, a viability, T/C [7] of 79.6% and a viability, T/C [8] of 40.5%. It also gave a viability, T/C (second compound 0.00949 µM, first compound 0.000316 µM) of 90.1%, a viability, T/C (second compound 0.00949 µM, first compound 0.001 µM) of 115% and a viability, T/C [9] of 93%. For the same molecule, the viability, T/C [10] was 94.1%, the viability, T/C [11] was 69.3% and the viability, T/C [12] was 33.6%. The viability, T/C (second compound 0.03 µM, first compound 0.000316 µM) was 106%, the viability, T/C (second compound 0.03 µM, first compound 0.001 µM) was 107% and the viability, T/C [13] was 92.7%. The viability, T/C [14] was 90.2%, the viability, T/C [15] was 70.3% and the viability, T/C [16] was 31.2%. The viability, T/C (second compound 0.0949 µM, first compound 0.000316 µM) was 103%, the viability, T/C (second compound 0.0949 µM, first compound 0.001 µM) was 98.4% and the viability, T/C [17] was 105%. The viability, T/C [18] was 95.4%, the viability, T/C [19] was 55.8% and the viability, T/C [20] was 31%. For the same molecule, the viability, T/C (second compound 0.3 µM, first compound 0.000316 µM) was 101%, the viability, T/C (second compound 0.3 µM, first compound 0.001 µM) was 100% and the viability, T/C [21] was 91.7%. For the same molecule, the viability, T/C [22] was 72.5%, the viability, T/C [23] was 44.3% and the viability, T/C [24] was 21.3%.

In the case of CCN1CCN(Cc2ccc(Nc3ncc(F)c(-c4cc(F)c5nc(C)n(C(C)C)c5c4)n3)nc2)CC1 + CCn1c(-c2cccnc2C(C)OC)c2c3cc(ccc31)N1CCOC(CC(NC(=O)C(C(C)C)N(C)C(=O)C3(F)CCN(C(=O)C#CC(C)(C)N(C)C)CC3)C(=O)N3CCCC(N3)C(=O)OCC(C)(C)C2)C1, the IC50 (second compound 0.000949 µM) is reported as > 1000 nM, the IC50 (second compound 0.003 µM) is reported as > 1000 nM and the IC50 (second compound 0.00949 µM) is reported as > 1000 nM. The IC50 (second compound 0.03 µM) was > 1000 nM, the IC50 (second compound 0.0949 µM) was > 1000 nM and the IC50 (second compound 0.3 µM) was > 1000 nM. It also gave a viability, T/C [1] of 123%, a viability, T/C [2] of 105% and a viability, T/C [3] of 135%. For the same molecule, the viability, T/C [4] was 140%, the viability, T/C [25] was 184% and the viability, T/C [26] was 126%. The viability, T/C [5] was 109%, the viability, T/C [6] was 95.8% and the viability, T/C [7] was 135%. For the same molecule, the viability, T/C [8] was 160%, the viability, T/C [27] was 168% and the viability, T/C [28] was 128%. The viability, T/C [9] was 85.8%, the viability, T/C [10] was 116% and the viability, T/C [11] was 97.7%. For the same molecule, the viability, T/C [12] was 162%, the viability, T/C [29] was 180% and the viability, T/C [30] was 132%. The viability, T/C [13] was 102%, the viability, T/C [14] was 136% and the viability, T/C [15] was 135%. It also gave a viability, T/C [16] of 155%, a viability, T/C [31] of 171% and a viability, T/C [32] of 110%. For the same molecule, the viability, T/C [17] was 118%, the viability, T/C [18] was 134% and the viability, T/C [19] was 122%. The viability, T/C [20] was 142%, the viability, T/C [33] was 142% and the viability, T/C [34] was 90.7%. For the same molecule, the viability, T/C [21] was 134%, the viability, T/C [22] was 113% and the viability, T/C [23] was 123%. For the same molecule, the viability, T/C [24] was 116%, the viability, T/C [35] was 104% and the viability, T/C [36] was 58.6%.

With C[C@@H](NC(=O)c1ncnc(N)c1Cl)c1ncc(C(=O)Nc2cc(C(F)(F)F)c(Cl)cn2)s1 + CCn1c(-c2cccnc2C(C)OC)c2c3cc(ccc31)N1CCOC(CC(NC(=O)C(C(C)C)N(C)C(=O)C3(F)CCN(C(=O)C#CC(C)(C)N(C)C)CC3)C(=O)N3CCCC(N3)C(=O)OCC(C)(C)C2)C1 the IC50 (second compound 0.000949 µM) was > 10000 nM, the IC50 (second compound 0.003 µM) was > 10000 nM and the IC50 (second compound 0.00949 µM) was > 10000 nM. The IC50 (second compound 0.03 µM) was > 10000 nM, the IC50 (second compound 0.0949 µM) was > 10000 nM and the IC50 (second compound 0.3 µM) was > 10000 nM. It also gave a viability, T/C [3] of 103%, a viability, T/C [4] of 85.1% and a viability, T/C [25] of 87.7%. For the same molecule, the viability, T/C [26] was 96.6%, the viability, T/C (second compound 0.000949 µM, first compound 3.16 µM) was 104% and the viability, T/C (second compound 0.000949 µM, first compound 10 µM) was 80.5%. The viability, T/C [7] was 91.5%, the viability, T/C [8] was 84.5% and the viability, T/C [27] was 90.7%. It also gave a viability, T/C [28] of 90.1%, a viability, T/C (second compound 0.003 µM, first compound 3.16 µM) of 92.9% and a viability, T/C (second compound 0.003 µM, first compound 10 µM) of 95.1%. The viability, T/C [11] was 101%, the viability, T/C [12] was 95.3% and the viability, T/C [29] was 93.1%. The viability, T/C [30] was 105%, the viability, T/C (second compound 0.00949 µM, first compound 3.16 µM) was 94.6% and the viability, T/C (second compound 0.00949 µM, first compound 10 µM) was 82.6%. The viability, T/C [15] was 93.8%, the viability, T/C [16] was 95.4% and the viability, T/C [31] was 89.2%. It also gave a viability, T/C [32] of 85.8%, a viability, T/C (second compound 0.03 µM, first compound 3.16 µM) of 95.7% and a viability, T/C (second compound 0.03 µM, first compound 10 µM) of 72.5%. For the same molecule, the viability, T/C [19] was 102%, the viability, T/C [20] was 116% and the viability, T/C [33] was 104%. For the same molecule, the viability, T/C [34] was 113%, the viability, T/C (second compound 0.0949 µM, first compound 3.16 µM) was 110% and the viability, T/C (second compound 0.0949 µM, first compound 10 µM) was 76.3%. For the same molecule, the viability, T/C [23] was 109%, the viability, T/C [24] was 120% and the viability, T/C [35] was 114%. The viability, T/C [36] was 112%, the viability, T/C (second compound 0.3 µM, first compound 3.16 µM) was 103% and the viability, T/C (second compound 0.3 µM, first compound 10 µM) was 57%.
